Our source for the IC50 values is patent US20260226048A1, “MULTI-CYCLIC IRAK AND FLT3 INHIBITING COMPOUNDS AND USES THEREOF” (CHILDREN'S HOSPITAL MEDICAL CENTER, priority 2023, published 2026).

The subject of one experiment is MOLM14 D835Y cells. Description: MOLM14 D835Y cell viability assay (Cell Titer Glo). It is filed as cell-based. The following applies: Homo sapiens, MOLM-14, 48 h, cell viability, Cell Titer Glo, 48 hours; read-out: MOLM14 D835Y IC50. In outline: (§1)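 Luminescent ATP read-out (CellTiter-Glo, 15 min room temperature) taken 48 h after compound addition. Cells were MOLM14 carrying FLT3 D835Y or F691L mutations, plated at 1000 cells per well.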
(In ATP-based viability assays light output follows the ATP content of the culture.)

The target in another experiment is T1, IRAK4 (Homo sapiens, UniProt Q9NWZ3).
T1 sequence (Q9NWZ3 1-460): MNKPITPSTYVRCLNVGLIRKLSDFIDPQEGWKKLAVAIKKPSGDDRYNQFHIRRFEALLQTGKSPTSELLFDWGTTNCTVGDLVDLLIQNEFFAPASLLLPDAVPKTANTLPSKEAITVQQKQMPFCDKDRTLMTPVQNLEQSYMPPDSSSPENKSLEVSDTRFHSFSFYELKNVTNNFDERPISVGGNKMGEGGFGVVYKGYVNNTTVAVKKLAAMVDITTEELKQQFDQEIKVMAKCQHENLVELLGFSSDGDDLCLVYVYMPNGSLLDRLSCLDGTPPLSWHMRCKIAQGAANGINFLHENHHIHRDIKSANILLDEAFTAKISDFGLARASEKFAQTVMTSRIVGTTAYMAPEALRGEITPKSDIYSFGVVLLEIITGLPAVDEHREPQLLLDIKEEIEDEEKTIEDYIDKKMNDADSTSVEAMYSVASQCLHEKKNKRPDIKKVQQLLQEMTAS
Description: RBC HotSpot Kinase Assay, IRAK4. It is filed as biochemical. Also on record: purchased Reaction Biology (RBC HotSpot). The following applies: isolated kinase enzyme, 33P-ATP, P81 filter-binding. Put shortly: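 Radiometric filter-binding activity assay with isolated recombinant kinase (construct may be truncated or catalytic domain only) in 20 mM Hepes pH 7.5, 10 mM MgCl2, 1 mM EGTA, 2 mM DTT, 1% DMSO. Compound preincubated 20 min with kinase/substrate; reaction started with 33P-ATP, run 2 h at room temperature.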

The target in a further experiment is T2, IRAK1 (Homo sapiens, UniProt P51617).
T2 construct: purchased Reaction Biology (RBC HotSpot)
T2 sequence (P51617 whole entry): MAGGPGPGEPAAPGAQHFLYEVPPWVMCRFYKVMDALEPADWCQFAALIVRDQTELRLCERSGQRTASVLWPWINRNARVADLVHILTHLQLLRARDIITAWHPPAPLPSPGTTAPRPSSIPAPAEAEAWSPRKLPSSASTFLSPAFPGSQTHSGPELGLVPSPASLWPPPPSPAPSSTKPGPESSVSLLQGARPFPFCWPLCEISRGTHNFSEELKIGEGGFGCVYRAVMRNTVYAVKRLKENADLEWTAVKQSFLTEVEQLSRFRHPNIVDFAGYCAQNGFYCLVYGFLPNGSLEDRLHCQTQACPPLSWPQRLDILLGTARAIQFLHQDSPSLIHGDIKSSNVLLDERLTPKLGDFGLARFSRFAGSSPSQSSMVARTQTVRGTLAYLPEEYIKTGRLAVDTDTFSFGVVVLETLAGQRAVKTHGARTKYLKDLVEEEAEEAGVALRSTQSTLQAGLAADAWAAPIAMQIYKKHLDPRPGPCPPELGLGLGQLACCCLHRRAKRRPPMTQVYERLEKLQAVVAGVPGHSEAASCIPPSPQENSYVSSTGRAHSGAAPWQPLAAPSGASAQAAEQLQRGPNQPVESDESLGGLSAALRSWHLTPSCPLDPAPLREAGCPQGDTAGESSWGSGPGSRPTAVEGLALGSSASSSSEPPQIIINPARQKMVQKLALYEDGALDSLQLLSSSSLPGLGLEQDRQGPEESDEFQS
Description: RBC HotSpot Kinase Assay, IRAK1. It is filed as biochemical. Conditions: isolated kinase enzyme, 33P-ATP, P81 filter-binding. Put shortly:
(§2)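 Reactions ran in 20 mM Hepes (pH 7.5) containing 10 mM MgCl2, 1 mM EGTA, 0.1 mM Na3VO4, 2 mM DTT, 0.02 mg/ml BSA, 0.01% Brij35 and 1% DMSO, plus required cofactors. Functional activity readout on the expressible enzyme form, sometimes C-terminally truncated or lacking receptor regulatory regions.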

The test system of the next experiment is MOLM14 F691L cells. Description: MOLM14 F691L cell viability assay (Cell Titer Glo). It is filed as cell-based. The following applies: Homo sapiens, MOLM-14; cell viability, Cell Titer Glo, 48 hours; read-out: MOLM14 F691L IC50. In outline: as §1
In another experiment the target is T3, FLT3 (Homo sapiens, UniProt P36888).
T3 sequence (P36888 27-993): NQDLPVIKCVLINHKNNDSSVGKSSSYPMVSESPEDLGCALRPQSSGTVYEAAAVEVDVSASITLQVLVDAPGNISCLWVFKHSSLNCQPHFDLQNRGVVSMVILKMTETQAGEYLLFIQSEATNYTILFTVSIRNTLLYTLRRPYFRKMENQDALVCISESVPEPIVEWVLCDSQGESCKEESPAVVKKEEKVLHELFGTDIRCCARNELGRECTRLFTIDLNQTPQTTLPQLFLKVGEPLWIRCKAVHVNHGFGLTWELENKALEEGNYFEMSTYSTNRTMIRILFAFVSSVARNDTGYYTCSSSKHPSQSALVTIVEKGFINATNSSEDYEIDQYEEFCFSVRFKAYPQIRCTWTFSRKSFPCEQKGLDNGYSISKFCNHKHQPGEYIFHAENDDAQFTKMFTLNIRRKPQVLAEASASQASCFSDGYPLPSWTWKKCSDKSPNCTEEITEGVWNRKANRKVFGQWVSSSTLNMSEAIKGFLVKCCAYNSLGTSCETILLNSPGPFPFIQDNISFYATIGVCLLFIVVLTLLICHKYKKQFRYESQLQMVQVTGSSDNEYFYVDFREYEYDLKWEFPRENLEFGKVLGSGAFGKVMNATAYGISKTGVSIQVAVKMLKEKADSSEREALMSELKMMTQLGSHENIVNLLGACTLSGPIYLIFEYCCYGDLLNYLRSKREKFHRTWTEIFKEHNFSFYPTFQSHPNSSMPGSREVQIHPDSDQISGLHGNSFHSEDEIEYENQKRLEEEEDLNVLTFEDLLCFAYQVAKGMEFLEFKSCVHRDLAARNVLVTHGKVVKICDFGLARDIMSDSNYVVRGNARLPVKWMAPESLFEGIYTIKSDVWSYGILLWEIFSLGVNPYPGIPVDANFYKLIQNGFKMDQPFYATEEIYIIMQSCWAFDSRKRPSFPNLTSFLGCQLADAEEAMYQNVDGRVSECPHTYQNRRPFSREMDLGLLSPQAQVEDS
Description: RBC HotSpot Kinase Assay, FLT3. It is filed as biochemical. Also on record: purchased Reaction Biology (RBC HotSpot). The following applies: isolated kinase enzyme, 33P-ATP, P81 filter-binding. In outline:
as §2

With `COc1cc2ncc(-c3nc(N[C@H]4CNC[C@@H]4F)ncc3F)n2nc1C1COC1` [Compound 93a, 5-fluoro-N-((3S,4S)-4-fluoropyrrolidin-3-yl)-4-(7-methoxy-6-(oxetan-3-yl)imidazo[1,2-b]pyridazin-3-yl)pyrimidin-2-amine], the half-inhibitory concentration (IC50) (as a rule, the concentration that gives 50% inhibition) in the experiment with MOLM14 D835Y cells was 13 nM; at IRAK4, below 0.5 nM; on IRAK1, 5 nM; in the experiment on MOLM14 F691L cells, 142 nM; at FLT3 it was below 0.5 nM.
In the case of `COc1cc2ncc(-c3ccnc(N[C@H]4CNC[C@@H]4F)n3)n2nc1C1COC1` [Compound 95a, N-((3S,4S)-4-fluoropyrrolidin-3-yl)-4-(7-methoxy-6-(oxetan-3-yl)imidazo[1,2-b]pyridazin-3-yl)pyrimidin-2-amine], the IC50 in the experiment with MOLM14 D835Y cells is 113 nM; on IRAK4, 6 nM; on IRAK1, 300 nM; in the experiment on MOLM14 F691L cells it was 2000 nM; on FLT3, 0.7 nM.
As to `COc1cc2ncc(-c3ccnc(N[C@@H]4CCCNC4)n3)n2nc1C1COC1` [Compound 96a, (R)-4-(7-methoxy-6-(oxetan-3-yl)imidazo[1,2-b]pyridazin-3-yl)-N-(piperidin-3-yl)pyrimidin-2-amine], the 50% inhibitory concentration (IC50) in the experiment on MOLM14 D835Y cells is 16 nM; at IRAK4, 62 nM; on IRAK1, 1790 nM; in the experiment on MOLM14 F691L cells, 160 nM; on FLT3, 0.5 nM.
For `COc1cc2ncc(-c3ccnc(N[C@H]4CNCC[C@@H]4F)n3)n2nc1C1COC1` [Compound 97a, N-((3S,4S)-4-fluoropiperidin-3-yl)-4-(7-methoxy-6-(oxetan-3-yl)imidazo[1,2-b]pyridazin-3-yl)pyrimidin-2-amine], in that order: 32 nM, 4 nM, 361 nM, 318 nM and 0.7 nM.
The like results for `CC(C)(O)c1cn2c(-c3nc(N[C@H]4CNC[C@@H]4F)ncc3F)cnc2cn1` [Compound 98a, 2-(3-(5-fluoro-2-(((3S,4S)-4-fluoropyrrolidin-3-yl)amino)pyrimidin-4-yl)imidazo[1,2-a]pyrazin-6-yl)propan-2-ol] were, in that order, 113 nM, 2 nM, 46 nM, 2520 nM and 1 nM.
For `CC(C)(O)c1cn2c(-c3nc(N[C@@H]4CCCNC4)ncc3F)cnc2cn1` [Compound 99a, (R)-2-(3-(5-fluoro-2-(piperidin-3-ylamino)pyrimidin-4-yl)imidazo[1,2-a]pyrazin-6-yl)propan-2-ol], in that order: 142 nM, 11 nM, 44 nM, 1420 nM and 3 nM.
For `COc1cc2ncc(-c3nc(N[C@H]4CNC[C@@H]4F)ncc3Cl)n2nc1C1CC1` [Compound 101a, 5-chloro-4-(6-cyclopropyl-7-methoxyimidazo[1,2-b]pyridazin-3-yl)-N-((3S,4S)-4-fluoropyrrolidin-3-yl)pyrimidin-2-amine], the half-maximal inhibitory concentration (IC50) with MOLM14 D835Y cells was 113 nM; at IRAK4, 1 nM; on IRAK1, 24 nM; with MOLM14 F691L cells, 711 nM; on FLT3 it was 0.8 nM.
Turning to `COc1cc2ncc(-c3nc(N[C@@H]4CCCNC4)ncc3Cl)n2nc1C1CC1` [Compound 102a, (R)-5-chloro-4-(6-cyclopropyl-7-methoxyimidazo[1,2-b]pyridazin-3-yl)-N-(piperidin-3-yl)pyrimidin-2-amine], the IC50 with MOLM14 D835Y cells is 23 nM; on IRAK4, 2 nM; on IRAK1, 81 nM; in the experiment with MOLM14 F691L cells, 71 nM; on FLT3 it was below 0.5 nM.
The like results for `COc1cc2ncc(-c3nc(N[C@H]4CNCC[C@@H]4F)ncc3Cl)n2nc1C1CC1` [Compound 103a, 5-chloro-4-(6-cyclopropyl-7-methoxyimidazo[1,2-b]pyridazin-3-yl)-N-((3S,4S)-4-fluoropiperidin-3-yl)pyrimidin-2-amine] were, in that order, 71 nM, 3 nM, 179 nM, 201 nM and 0.7 nM.
For `COc1cnc(N[C@@H]2CCCNC2)nc1-c1cnc2cc(OC)c(C3CC3)nn12` [Compound 105a, (R)-4-(6-cyclopropyl-7-methoxyimidazo[1,2-b]pyridazin-3-yl)-5-methoxy-N-(piperidin-3-yl)pyrimidin-2-amine], in that order: 711 nM, 259 nM, above 10000 nM, 6340 nM and 33 nM.
On to `COc1cc2ncc(-c3nc(N[C@H]4CNC[C@@H]4F)ncc3F)n2nc1N1CCCC1=O` [Compound 107a, 1-(3-(5-fluoro-2-(((3S,4S)-4-fluoropyrrolidin-3-yl)amino)pyrimidin-4-yl)-7-methoxyimidazo[1,2-b]pyridazin-6-yl)pyrrolidin-2-one], for which the half-maximal inhibitory concentration (IC50) in the experiment on MOLM14 D835Y cells was 80 nM; on IRAK4, 20 nM; at IRAK1 it was 102 nM; in the experiment on MOLM14 F691L cells it was 1130 nM; at FLT3, 0.6 nM.
For `COc1cc2ncc(-c3nc(N[C@H]4CNCC[C@@H]4F)ncc3F)n2nc1N1CCCC1=O` [Compound 108a, 1-(3-(5-fluoro-2-(((3S,4S)-4-fluoropiperidin-3-yl)amino)pyrimidin-4-yl)-7-methoxyimidazo[1,2-b]pyridazin-6-yl)pyrrolidin-2-one], in that order: 80 nM, 57 nM, 241 nM, 798 nM and 2 nM.
For `COc1cc2ncc(-c3ccnc(N[C@H]4CNCC[C@@H]4F)n3)n2nc1C1CCO1` (stereo partly drawn) [Compound 109a, N-((3S,4S)-4-fluoropiperidin-3-yl)-4-(7-methoxy-6-(oxetan-2-yl)imidazo[1,2-b]pyridazin-3-yl)pyrimidin-2-amine], in that order: 28 nM, 4 nM, 239 nM, 318 nM and 1 nM.
For the compound `COc1cc2ncc(-c3nc(N[C@@H]4CCCNC4)ncc3F)n2nc1N1CCCS1(=O)=O` [Compound 110a, (R)-2-(3-(5-fluoro-2-(piperidin-3-ylamino)pyrimidin-4-yl)-7-methoxyimidazo[1,2-b]pyridazin-6-yl)isothiazolidine 1,1-dioxide], the half-maximal inhibitory concentration (IC50) with MOLM14 D835Y cells is 18 nM; at IRAK4, 20 nM; at IRAK1 it was 23 nM; with MOLM14 F691L cells, 113 nM; at FLT3, below 0.5 nM.
